{
  "source": "patent US20210177814A1",
  "about": "“USE OF GUANABENZ OR DERIVATES THEREOF FOR THE TREATMENT OF TYPE I IFN-DEPENDENT PATHOLOGIES” (INSERM (Institut National de la Santé et de la Recherche …, priority 2018, published 2021)",
  "molecular_target": "T1, TLR9 (Mus musculus, UniProt Q9EQU3)",
  "T1 construct": "from tissue; host or cells: whole animal: C57BL/6, FVB and FVB GADD34ΔC/ΔC mice",
  "T1 sequence (Q9EQU3 26-1032)": "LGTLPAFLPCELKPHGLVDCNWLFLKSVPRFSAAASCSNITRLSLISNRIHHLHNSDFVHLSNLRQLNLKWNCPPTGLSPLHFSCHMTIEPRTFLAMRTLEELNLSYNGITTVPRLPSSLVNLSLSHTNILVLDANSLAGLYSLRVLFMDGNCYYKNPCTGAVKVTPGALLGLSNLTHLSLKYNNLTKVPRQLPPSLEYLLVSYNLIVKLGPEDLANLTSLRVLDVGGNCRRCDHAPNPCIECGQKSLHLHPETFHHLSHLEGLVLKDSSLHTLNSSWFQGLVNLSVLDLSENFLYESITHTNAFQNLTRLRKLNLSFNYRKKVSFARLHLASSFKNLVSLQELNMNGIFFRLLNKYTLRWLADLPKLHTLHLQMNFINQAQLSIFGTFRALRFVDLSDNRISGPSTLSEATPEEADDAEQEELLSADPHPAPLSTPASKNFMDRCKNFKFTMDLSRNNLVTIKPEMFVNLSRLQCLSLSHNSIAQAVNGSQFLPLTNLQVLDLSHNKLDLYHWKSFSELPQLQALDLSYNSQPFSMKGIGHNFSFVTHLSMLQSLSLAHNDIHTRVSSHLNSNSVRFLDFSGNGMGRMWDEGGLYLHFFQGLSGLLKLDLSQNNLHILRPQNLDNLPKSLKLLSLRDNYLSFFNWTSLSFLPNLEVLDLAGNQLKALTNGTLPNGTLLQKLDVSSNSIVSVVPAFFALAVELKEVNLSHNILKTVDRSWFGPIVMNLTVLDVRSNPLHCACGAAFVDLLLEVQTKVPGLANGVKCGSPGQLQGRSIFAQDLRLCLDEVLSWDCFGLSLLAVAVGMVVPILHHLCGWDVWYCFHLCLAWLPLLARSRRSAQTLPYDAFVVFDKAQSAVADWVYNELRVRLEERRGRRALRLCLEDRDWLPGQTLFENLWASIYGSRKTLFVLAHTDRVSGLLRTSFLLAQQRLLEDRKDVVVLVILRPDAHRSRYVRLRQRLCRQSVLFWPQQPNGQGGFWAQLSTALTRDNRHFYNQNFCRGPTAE",
  "test": "D-galN/CpG ODN 1826 cytokine shock model",
  "type": "in vivo",
  "procedure": "WT and GADD34^ΔC/ΔC mice were injected with D-galN (20 mg/mouse), CpG ODN 1826 or PBS for control mice (50 μg/20 g), GBZ or clonidine (2 mg/kg). (A) Survival of C57/BL6 mice is represented as total percentage of survival after 48 h or in a Kaplan-Meier plot. (B) Survival of FVB (WT) and FVB GADD34^ΔC/ΔC mice is represented as total percentage of survival after 48 h or in a Kaplan-Meier plot. (C) The concentration of circulating TNF-α, IL-10 and IL-6 in C57/BL6 mice was measured after 1 h and/or 3 h of CpG ODN 1826. (D) Liver tissue damage and histology score were blindly determined by a professional anatomopathologist. Statistical significance was assigned on sample comparison by a one-way ANOVA, followed by Tukey range test and on the survival curve using log-rank test, followed by Benjamini-Yekutieli correction (* p<0.05; ** p<0.005; ***p<0.0005.).\nWild type female mice C57BL/6 of 8 weeks of age were injected i.p. with 2 mg/kg of GBZ, clonidine or PBS/DMSO. One hour later, they were injected i.p. with 20 mg/mouse of d-GalN and ODN 1826 50 μg/20 g (or PBS). Mice survival was checked every 12 hours for up to 48 hours. For some experiments, blood sera were collected 1 and 3 h after the injection of D-galN. The serum was used to measure circulating cytokines (TNFα, IL-6, IFNβ IL-10, IL-12). For some experiments, the liver was collected for immunohistochemistry after two days. For i.p. injections, 1 ml syringes and 25 gauge needles were used. Blood was collected from the cheek with a 18 gauge needle; for the TMPD model, no more than 200 μL were collected each time, respecting the ethic statement.\nMouse kidney and liver were fixed in 10% buffered formalin for 24 h, then the tissues were dehydrated and embedded in paraffin. Tissue sections of 3.5 μm were cut using the microtom Leica RM2245. Hematoxylin-eosin staining was effectuated automatically with Leica autostainer XL. Finally, the slides were mounted with entellan and kept at room temperature. Biopsies were analyzed by an anatomopathologist and the clinical score was assigned in a blinded way. Pictures were taken with Nikon Eclipse.\n• a) Lobular inflammation • 0—no inflammation, 1—mild lobular inflammation (<10% of liver parenchyma), 2—moderate lobular inflammation (10-50% of liver parenchyma), 3—severe lobular inflammation (>50% of liver parenchyma) • b) Portal inflammation • 0—no portal inflammation, 1—mild portal inflammation (<⅓ of portal tracts), 2—moderate portal inflammation (approximately 50% of portal tracks), 3—severe portal inflammation (>⅔ of portal tracts) • Portal and lobular inflammation score are added=inflammation score • c) Necrosis • 0—No necrosis, 1—<10% necrosis of liver parenchyma, 2—10-25% necrosis of liver parenchyma, 3—25% necrosis of liver parenchyma • Inflammation score and necrosis score are added=Total histologic score",
  "key": {"[1]": {"conditions": "WT mice, 1 hour after CpG injection, 2 mg/kg"}},
  "data": [
    {"smiles": "NC(N)=N/N=C/c1c(Cl)cccc1Cl", "note": "[GBZ, 2-(2,6-dichlorobenzylidene)-hydrazinecarboximidamide]", "values": [
      {"measurement": "survival after 48 h", "setting": "C57BL/6 WT mice, D-galN + CpG ODN 1826, compound 2 mg/kg i.p.", "result": "up to 70%"},
      {"measurement": "liver cells survival (liver examination and histological scores)", "setting": "CpG-induced lethality, GBZ 2 mg/kg", "result": "little direct protective effect"},
      {"measurement": "survival", "setting": "FVB GADD34ΔC/ΔC mice, D-galN + CpG, GBZ 2 mg/kg", "result": "protected from death"},
      {"measurement": "decrease in efficiency of protection in GADD34ΔC/ΔC mice", "setting": "GADD34ΔC/ΔC vs WT mice, GBZ 2 mg/kg", "result": "~28", "unit": "%"},
      {"measurement": "production of IL-10", "setting": "WT mice after CpG injection, GBZ 2 mg/kg", "result": "strongly increased"},
      {"measurement": "circulating IL-6 plasma concentration", "setting": "[1]", "result": "strongly attenuated"},
      {"measurement": "circulating TNF-α plasma concentration", "setting": "[1]", "result": "strongly attenuated"}
    ]}
  ]
}
